{"source": "patent US7687465B2", "about": "“Therapeutic cancer vaccine” (Kraeftens Bekaempelse, priority 2003, dated 2010)", "key": {"[1]": {"system": "peripheral blood T cells or TIL from melanoma patients", "experiment": "ELISPOT IFN-γ secretion assay, T-cell responses against HLA-A2 binding ML-IAP peptides", "type": "cell-based, human", "protocol": "Peripheral blood was obtained from melanoma patients before vaccination and subsequent to a series of vaccinations. In order to identify peptide-specific T-cell precursors, peripheral blood lymphocytes (PBL) were used directly in the ELISPOT (designated direct ELISPOT). However, to extend the sensitivity of the ELISPOT assay, PBL were stimulated once in vitro prior to analysis^17,18. At day 0, PBL or crushed lymph nodes were thawed and plated in 2 ml/well at a concentration of 2×10^6 cells in 24-well plates (Nunc, Denmark) in X-vivo medium (Bio Whittaker, Walkersville, Md.), 5% heat-inactivated human serum, and 2 mM of L-glutamine in the presence of 10 μM of peptide. Two days later 20 IU/ml recombinant interleukin-2 (IL-2) (Chiron, Ratingen, Germany) was added to the cultures. The cultured cells were tested for reactivity in the ELISPOT on day 8.\nThe ELISPOT assay used to quantify peptide epitope specific interferon-7 releasing effector cells was adapted from Lalvani et al.^37, and Scheibenbogen et al.^38. Briefly, nitrocellulose bottomed 96-well plates (MultiScreen MAIP N45, Millipore) were coated overnight at 4° C. with 7.5 μg/ml of anti-IFN-γ antibody (1-D1K, Mabtech, Sweden) in 75 μl sterile PBS. Subsequently, the wells were washed six times with PBS, and non-specific binding were blocked by X-vivo medium for 2 hours at 37° C. Freshly isolated PBL or cells, which had been stimulated once in vitro, were added in duplicates at different cell concentrations (from 10^6 to 10^5 cells per well for non-stimulated PBL, and from 3×10^5-3×10^4 cells per well for PBL which had been stimulated once in vitro), in 100 μl X-vivo medium. Peptides were then added to each well to a final concentration of 2 μM and incubated overnight at 37° C.\nThe following day, media was discarded and the wells were washed (six times) with PBS containing 0.05% Tween (PBS/Tw) before the addition of biotinylated secondary antibody (7-B6-1-Biotin, Mabtech) at 0.5 μg/ml in 75 μl PBS containing 1% BSA and 0.02% NaN3 (PBS/BSA). The plates were incubated at room temperature for 2 hours. The wells were washed (six times) with PBS/Tw. Then 75 μl of Avidin-enzyme conjugate (AP-Avidin, Calbiochem) diluted 1:2000 in PBS/BSA were added to each well and incubated for 1 hour. The enzyme substrate NBT/BCIP was prepared freshly according to the manufacturers' instructions (Gibco, code 18280-016) and 75 μl were added to each well and incubated for 5-10 min. The reaction was terminated by washing with tap-water upon the emergence of dark purple spots. The spots were then counted using the AlphaImager System (Alpha Innotech, San Leandro, Calif., USA) and the peptide specific CTL frequency could be calculated as the number of spot-forming cells.\nTo extend the sensitivity of the ELISPOT assay, PBL were stimulated once in vitro prior to analysis^17,18. At day 0, PBL or crushed lymph nodes were thawed and plated in 2 ml/well at a concentration of 2×10^6 cells in 24-well plates (Nunc, Denmark) in X-vivo medium (Bio Whittaker, Walkersville, Md.), 5% heat-inactivated human serum, and 2 mM of L-glutamine in the presence of 10 μM of peptide. Two days later 20 IU/ml recombinant interleukin-2 (IL-2) (Chiron, Ratingen, Germany) was added to the cultures. The cultured cells were tested for reactivity in the ELISPOT on day 12.\nThe ELISPOT assay used to quantify peptide epitope-specific interferon-γ-releasing effector cells was performed as described previously^19. Briefly, nitrocellulose bottomed 96-well plates (MultiScreen MAIP N45, Millipore, Hedehusene, Denmark) were coated with anti-IFN-7 antibody (1-D1K, Mabtech, Nacka, Sweden). The wells were washed, blocked by X-vivo medium, and cells were added in duplicates at different cell concentrations. Peptides were then added to each well and the plates were incubated overnight. The following day, media was discarded and the wells were washed prior to addition of biotinylated secondary antibody (7-B6-1-Biotin, Mabtech). […]"}, "[2]": {"system": "primary melanoma sections", "experiment": "In situ detection of ML-IAP-reactive CTL with multimerized HLA-A2/peptide complexes", "set-up": "species or system human", "conditions": "sections of primary melanoma from six patients", "description": "In situ detection of ML-IAP-reactive CTL. Confocal laser scanning microscopy was used to detect CTL reacting with a Cy3-conjugated anti-CD8 antibody (red channel) and a fluorescein isothiocyanate-conjugated multimeric HLA-A2/ML-IAP280 construct (green channel) (first and second columns) or with a fluorescein isothiocyanate conjugated multimeric HLA-A2/ML-IAP245 construct (last column) in primary tumors from two HLA-A2-positive melanoma patients.\nHLA-A2 and ML-IAP245/HLA-A2-specific monomers were multimerized using dextran molecules, which were conjugated with both streptavidin and fluorescein isothiocyanate. Multimerized MHC complexes were used to stain acetone-fixed, frozen material as described previously^11,48 and antigen-specific cells were visualized using a confocal laser microscope. Sections of primary melanoma from six patients were analyzed, and ML-IAP280- and ML-IAP245-reactive CTL could readily be detected in situ in the tumor microenvironment in two of the patients (FIG. 4)."}}, "data": [{"smiles": "CC(C)C[C@H](NC(=O)[C@@H](N)CCCNC(=N)N)C(=O)N[C@@H](CCC(N)=O)C(=O)N[C@@H](CCC(=O)O)C(=O)N[C@@H](CCC(=O)O)C(=O)N[C@@H](CCCNC(=N)N)C(=O)N[C@H](C(=O)N[C@@H](CS)C(=O)N[C@@H](CCCCN)C(=O)N[C@H](C(=O)O)C(C)C)[C@@H](C)O", "note": "[ML-IAP245]", "values": [{"measurement": "strength of spontaneous CTL response", "setting": "[1]; TIL and PBL from melanoma patients, in words", "result": "Weaker spontaneous responses"}, {"measurement": "TIL samples in which a response against the peptide was detected", "setting": "[1]; TIL from melanoma patients (n=22), stimulated once in vitro with peptide, number of samples", "result": "five"}, {"measurement": "PBL samples in which a response against the peptide was detected", "setting": "[1]; peripheral blood T cells from melanoma patients (n=7), stimulated once in vitro with peptide, number of samples", "result": "one"}, {"measurement": "patients with peptide-reactive CTL detected in situ in the tumor microenvironment", "setting": "[2]", "result": "two"}]}]}
